Measured values taken from US7538096B2, “Treatment and prevention of abnormal cellular proliferation” (The General Hospital Corporation, priority 2004, dated 2009).
Read-outs that look alike come from different tables or passages of the source.

Tests used:
[1] = tested on: pulmonary artery smooth muscle cell; conditions: in vivo, FIG. 4
[2] = tested on: fibroblast; test: fibroblast proliferation; type: cell-based; conditions: unpublished data
[3] = tested on: pulmonary hypertension induced by hypoxia; conditions: pig lung, FIG. 5
[4] = tested on: bovine pulmonary artery smooth muscle cells; conditions: in vitro, in comparison to non-acylated heparin fragments
[5] = tested on: tumor grown in SCID mice; test: apoptosis index in tumor grown in SCID mice (FIG. 19); type: in vivo
[6] = tested on: coagulation; test: coagulation time (FIG. 13); conditions: for coagulation time: FIG. 13
[7] = tested on: A549 (non-small cell lung carcinoma) cell tumor; test: A549 cell tumor growth in SCID mice (FIGS. 6-8); type: in vivo; conditions: dose dependent
[8] = tested on: DMS79 (small cell lung carcinoma) cell tumor; test: DMS79 cell tumor growth in SCID mice (FIGS. 9-10); type: in vivo; conditions: dose dependent
[9] = tested on: E2F1; test: expression of E2F1 protein in A549 cell tumor tissue (FIG. 22); type: in vivo; conditions: A549 cell tumor tissue grown in SCID mice, dose dependent
[10] = tested on: HCT116 (colon cancer) cell tumor; test: HCT116 cell tumor growth in SCID mice (FIGS. 11-12); type: in vivo; conditions: dose dependent
[11] = tested on: p27/KIP1; conditions: A549 cell tumor tissue grown in SCID mice, dose dependent, FIG. 20
[12] = histology of tumor tissue and organs from SCID mice bearing A549 cell tumor (FIGS. 14-18); type: in vivo
[13] = tested on: Rb; test: expression of Rb gene product in A549 cell tumor tissue (FIG. 21); type: in vivo; conditions: A549 cell tumor tissue grown in SCID mice, dose dependent, lesser effect than on p27/KIP1, FIG. 21
[14] = tested on: coagulation; test: anticoagulant property (no test named)
[15] = tested on: fibroblast; conditions: Dahlberg et al. Am Rev. Respir. Dis. 143:A357, 1993; cited from earlier work
[16] = tested on: pulmonary fibrosis in response to bleomycin; test: pulmonary fibrosis in the rat in response to bleomycin; type: in vivo

## O-Hexanoyl derivative of periodate-oxidized heparin fragments [hexanoylated heparin]
[1]
  pulmonary artery smooth muscle cell proliferation: significantly inhibited
[2]
  fibroblast proliferation: can also inhibit
[3]
  development of pulmonary hypertension: significantly inhibited
[4]
  antiproliferative effect: significantly enhanced

## O-butanoylated LMW Heparin [butanoylated heparin]
[5]
  apoptosis index: induction of apoptosis
[6]
  coagulation time: no significant effect
[6]; compared to non-acylated controls, FIGS. 13 and 14
  anticoagulant effects: very low
[7]; FIG. 6
  tumor growth: significantly inhibited
[7]; FIG. 7
  tumor weight: significantly decreased
[7]; FIG. 8
  percent inhibition of tumor growth: significantly inhibited
[8]; FIG. 9
  tumor growth: significantly inhibited
[8]; FIG. 10
  tumor weight: significantly decreased
[9]
  expression of E2F1 protein: significantly inhibited
[10]; FIG. 11
  tumor growth: significantly inhibited
[10]; FIG. 12
  tumor growth: significantly inhibited
[11]
  expression of p27/KIP1 gene product: significantly inhibited
[12]; animals tested, FIG. 15-18
  toxic effect on heart, liver, kidney, and lung: no toxic effect
[2]
  fibroblast proliferation: can also inhibit
[13]
  expression of Rb gene product: decreased
[14]
  anticoagulant property: virtually no

## heparin [Native heparin, reference compound]
[5]
  apoptosis index: significantly induces apoptosis
[6]
  coagulation time: increased
[12]; 100 mg/kg, SCID mice, FIG. 14
  hemorrhage in A549 cell tumor tissue (histology): Hemorrhage was detected
[15]
  fibroblast proliferation: can inhibit
[16]
  pulmonary fibrosis: can inhibit
